The test system of this experiment is Sprague-Dawley rats. The experiment can be described thus: In vivo co-dosing in chow (urine P out / P consumed). Conditions: feed or water; rat; drug in chow, nominal 100 mg/kg/day (mean dose per line in table); urine 24-96 h; read-out: Mean % inhibition Urine Pout/P consumed. An excerpt: Male, 7-week-old Sprague-Dawley rats (Charles-River laboratories international, Hollister, Calif.) were allowed to acclimate for a minimum of 3 days. The experiment was initiated by switching animals to a synthetic diet (0.6% phosphorus and 0.6% calcium, Harlan Teklad TD.84122) for four days. After this time, the animals were placed into metabolic cages for daily monitoring of food and water consumption, as well as urine and fecal collections. Test compounds were incorporated into the powdered diet listed above containing 3% chocolate flavoring (w/w, BioServ #7345) at 1.3 mg test compound per gram of diet to achieve an average daily nominal dose of 100 mg/kg/day. The actual dose received by each animal was later determined by measuring prepared diet consumption and body weight. Urine samples were collected in three daily periods from 24-48, 48-72, and 72-96 hours of drug dosing. […] Phosphorus levels in the urine were determined by anion exchange chromatography using a Dionex ICS-3000 ion chromatography system. […] Elution of urine phosphate ions was monitored via conductivity detector and reported as ppm relative to a standard ion solution containing phosphate. Daily urinary P output relative to the P consumed in the prepared diet for each animal was calculated. […] The differences between the means of control and treated groups were evaluated by t tests. […]

SMILES strings stand for the structures.

For the molecule `CCN(CC)c1ccc(NC(=O)c2cccc(C(=O)N(C)CCN3CCOCC3)c2)c(-c2cc(C(=O)NCc3cccc(C(F)(F)F)c3)ccn2)c1` [Example 25, N1-(4-(Diethylamino)-2-(4-((3-(trifluoromethyl)benzyl)carbamoyl)pyridin-2-yl)phenyl)-N3-methyl-N3-(2-morpholinoethyl)isophthalamide], the inhibition in vivo at 100 mg/kg/day lay within 10 to 30%.

For the origin of these results see patent publication US9301951B2 (Ardelyx, Inc., priority 2010, dated 2016).
